Results taken from patent publication US20240327372A1, “PREPARATION OF PHENE[…] […] STEREOISOMERS THEREOF AND PRECURSORS THEREOF” (priority 2022, published 2024).
Like-named read-outs stand apart in the source and are kept apart here.

How the values were obtained:
[1] = system: rat forced swim test (FST); assay: Rat forced swim test (FST); type: in vivo
Protocol: All FST studies are performed and scored by an experimenter blind to treatment group and according to standard protocols. Briefly, rats are placed in a circular plexiglass container filled with water. Water temperature is maintained at 22-25° C. and changed for every animal. Day 1 (Training) consists of a 15 min acclimation trial, and Day 2 (Testing, 24 h later) consists of the 5 min test. A time sampling procedure is employed where animals are observed every 5 seconds for the duration of the test session (60 counts or 5 minutes) and scored for immobility (defined as the failure to struggle), swimming (defined as a circular movement around the tank), or climbing (defined as an upwards escape behavior). Data are expressed as the percent of the testing session (e.g., the number of immobility counts divided by 60). A p-value less than 0.05 indicates statistical significance after typical statistical analyses (e.g., unpaired t-test or ANOVA).
To determine that the prodrug and/or enantiomer has an antidepressant-like effect and to compare it to methylone, rats are treated with each compound 30 min prior to testing. Additional tests are run 24, 72, 168 hours post-dose or longer.
Racemic methylone (10 mg/kg, IP) has a maximal antidepressant-like effect in the rat forced swim test (FST), reducing immobility by nearly 100% compared to vehicle treated controls. To determine whether one enantiomer of methylone could mimic the robust antidepressant-like effect of racemic methylone, rats were treated with a single dose of racemic methylone, (R)-methylone, (S)-methylone (all 10 mg/kg, IP) or vehicle 30 min before testing in the FST. […] Therefore, all of the activity of methylone appears to be driven by the activity of one enantiomer ((S)-methylone).

mouse model of PTSD = assay: Fear extinction in a mouse model of PTSD; type: in vivo; settings: 30 mg/kg IP
Protocol: FIGS. 1A-1D: Methylone improves fear extinction recall in a mouse model of PTSD. (FIG. 1A) Schematic of experimental design. A single CS-US (tone-shock) pairing on day 1 was followed by 6 CS presentations in a novel context (context B). Methylone or saline vehicle was injected 30 min prior to extinction training on day 2. On day 3, the time spent freezing to the CS was quantified. […] (FIG. 1C) The time freezing before vs. during each of 6 cues on day 3 (to control for locomotor effects) are shown. There was a significant cue x drug interaction (F(5, 130)=2.409, p<0.05). […] N=12 for methylone group (30 mg/kg, IP, orange diamonds) and N=16 for saline control group (black squares). *p<0.05
Effective PTSD treatments facilitate the disassociation between a traumatic memory and the patient's fear response, making cues for the traumatic memory evoke less of a fear response. This is modeled in the mouse fear extinction paradigm which takes place over 3 days. On day 1 (fear conditioning), mice are trained to acquire a “traumatic memory,” namely associating the conditioned stimulus (CS, tone) to the unconditioned stimulus (US, foot shock). […] On day 3 (extinction recall), the mice are “asked” if that tone (CS) still elicits a fearful response, as measured by the time spent freezing when the tone is presented. […]

[2] = self-administration, healthy volunteers; cited from earlier work
[3] = Pharmacokinetics of methylone after single IV, PO or IP administration, plasma LC-MS/MS; type: in vivo, male Sprague Dawley rats; settings: for MRT last: read-out: MRT0-last; for Cmax: rat plasma
Protocol: The pharmacokinetic properties of methylone after a single administration intravenously (IV), intraperitoneally (IP), or by oral gavage (PO) in male Sprague Dawley rats has been determined using a liquid chromatography tandem mass spectrometry (LC-MS/MS) method that has been established and validated for methylone in the rat. Rats (n=3 per group) received a single dose of methylone: 5 mg/kg IV, 15 mg/kg IP, or 15 mg/kg PO.
To investigate whether the prodrug extends the half-life or alters other basic pharmacokinetic properties of methylone (e.g., Cmax or Tmax), rats are treated with each prodrug IV, IP, or PO. For each compound, three groups of rats are treated as follows: For group 1, a single dose of methylone is administered to 3 male Sprague-Dawley rats by IV bolus at 5 mg/kg. For group 2, a single dose of methylone is administered to 3 male Sprague-Dawley rats by oral gavage (PO) at 15 mg/kg. For group 3, a single dose of methylone is administered to 3 male Sprague-Dawley rats by IP at 15 mg/kg. For all groups, blood samples are collected from each animal at 0.083, 0.25, 0.5, 1, 2, 4, 8, 12, and 24 hours post-dose for the determination of plasma concentrations. The plasma concentrations are quantified by liquid chromatography tandem mass spectrometry (LC-MS/MS). The bioanalytical assay has been established and validated, providing a lower limit of quantification (LLOQ) of 1 ng/mL and an upper limit of quantification (ULOQ) of 3000 ng/mL for methylone. The plasma concentration-time data are analyzed using Phoenix WinNonlin (version 8.3) to characterize the PK properties of the analyte. The non-compartmental analysis model and the linear/log trapezoidal method are applied to calculating the PK parameters.

open field test = settings: 5, 10, 20 mg/kg, SC; Štefková et al. 2017; cited from earlier work
[4] = rat; Elmore et al. 2017; cited from earlier work
PTSD = settings: clinical case series of 21 individuals; cited from earlier work
[5] = male, Sprague Dawley, rat, plasma, IP 15 mg/kg
[6] = male, Sprague Dawley, rat, plasma, IV 5 mg/kg
[7] = male, Sprague Dawley, rat, plasma, PO 15 mg/kg

In the case of `CNC(C)C(=O)c1ccc2c(c1)OCO2` (stereo not shown) [Methylone, 3,4-methylenedioxy-N-methylacthinone], the “Reduction of immobility compared to vehicle-treated controls” value ([1]; single dose 5 mg/kg) is reported as “approximately 50%”, the “Reduction of immobility compared to vehicle-treated controls” value ([1]; single dose 15 mg/kg) is reported as roughly 100% and the “Enhancement of fear extinction recall compared to saline controls” value (mouse model of PTSD; 30 min prior to extinction training) is reported as roughly 60%. For the same molecule, the “Freezing time during the first cue on day 3 (extinction recall) compared to saline” value (mouse model of PTSD; p<0.05) was “significantly reduced”, the Heart rate [2] was “increase in heart rate” and the “Systolic and diastolic blood pressure” value [2] was “significant increase”. It also gave a Tmax ([3]; IP 15 mg/kg) of 0.250 ± 0.000 h, an AUC(0-t) [3, 5] of 4300 ± 1180 ng·h/mL and a half-life [3, 5] of 0.8 ± 0.169 h. For the same molecule, the MRT last [3, 5] was 1.07 ± 0.211 h, the AUC(0-t) [3, 6] was 1200 ± 88.2 ng·h/mL and the C0 [3, 6] was 3020 ± 666 ng/mL. The clearance [3, 6] was 68.3 ± 5.4 mL/min/kg, the half-life [3, 6] was 0.362 ± 0.024 h and the MRT last [3, 6] was 0.439 ± 0.026 h. The Vd ([3]; male, Sprague Dawley, rat, plasma, IV 5 mg/kg, read-out: Vdss) was 1.98 ± 0.23 L/kg, the AUC(0-t) [3, 7] was 2760 ± 657 ng·h/mL and the half-life [3, 7] was 3.23 ± 1.99 h. It also gave an MRT last [3, 7] of 2.99 ± 0.467 h, a Tmax ([3]; male, Sprague Dawley, rat, plasma, PO 15 mg/kg, read-out: Tmax) of 1.33 ± 0.577 h and a Cmax ([3]; male, Sprague Dawley, IP 15 mg/kg) of 4230 ± 514 ng/mL. For the same molecule, the Cmax ([3]; male, Sprague Dawley, PO 15 mg/kg) was 678 ± 243 ng/mL, the “Thigmotaxis (time spent hugging the perimeter of the open field)” value (open field test) was “reduce thigmotaxis” and the t1/2 [4] was 1 h. For the same molecule, the “Patients with improved PTSD symptoms” value (PTSD) was 81%.
